Measured values as given in patent US7491849B2, “Oligoamine compounds and derivatives thereof for cancer therapy” (priority 2001, dated 2009).

Key:
PC-3 Cells = assay: Cellular polyamine and oligoamine levels, PC-3 cells (HPLC); type: cell-based
Protocol: Cellular Uptake of Oligoamines. There was considerable uptake of oligoamines by the cancer cell lines; see Table 3A (DuPro cells) and Table 3B (PC-3 cells). […] While not wishing to be limited by any particular theory of operation, the cytotoxicity is likely related to their strong aggregation effect on DNA.
Polyamine Analysis. An appropriate number of cells were taken from harvested samples and centrifuged at 1000 rpm at 4° C. for 5 min. The cells were washed twice with chilled Dulbecco's isotonic phosphate buffer (pH 7.4) by centrifugation at 1000 rpm at 4° C. and resuspended in the same buffer. After the final centrifugation, the supernatant was decanted, and […] of 8% sulfosalycilic acid was added to the cell pellet. The cells were sonicated, and the mixture was kept at 4° C. for at least 1 h. After centrifugation at 8000 g for 5 min, the supernatant was removed for analysis. An appropriate volume (50-100 μl) was fluorescence-labeled by derivatizing with dansyl chloride. Labeled polyamines were loaded onto a C-18 high-performance liquid chromatography column and separated by gradient elution with acetonitrile/water at 50° C. Peaks were detected and quantitated using Shimadzu HPLC fluorescence monitor coupled with a Spectra-Physics peak integrator. Because polyamine levels vary with environmental conditions, control cultures were sampled for each experiment.

DuPro = assay: MTT assay, tumor cell growth, DuPro; type: cell-based; conditions: 6 days incubation, read-out: ID50 (μM) values for Human Tumor Cell Lines, DuPro
Protocol: Effect of Saturated Oligoamines on Human Prostate Tumor Cell Growth by the MTT assay. Saturated oligoamines inhibited prostate cancer cell growth in vitro. DU-145 cells were most sensitive and PC-3 cells were less sensitive to the effects of oligoamines. In general, ID50 values of less than 0.5 μM were obtained (Table 2). Even though the PC-3 cells were relatively more resistant to the oligoamines, at a 5 μM concentration the oligoamines reduced the cell number to less than 1% of the control on day 6 of incubation. Tissue cultures and the MTT assay were performed as follows.
Tissue Culture. Cells were seeded into 75 cm^2 culture flasks with 15 ml of Eagle's minimal essential medium supplemented with 10% fetal calf serum and nonessential amino acids. The flasks were incubated in a humidified 95% air/5% CO2 atmosphere. The cells were grown for at least 24 h to ensure that they are in the log phase of growth and then they were treated with the oligoamines. Cells were harvested by treatment for 5 min with STV (saline A, 0.05% trypsin, 0.02% EDTA) at 37° C. The flasks were rapped on the lab bench, pipetted several times and aliquots of cell suspension were withdrawn and counted using a Coulter particle counter that has been standardized for counting each cell line using a hemacytometer.
MTT Assay: Trypsinized cell suspensions were diluted to seed 80 μl suspensions containing 500 cells in each well of a 96 well Corning microtiter plate and incubated overnight at 37° C. in a humidified incubator in 5% CO2. 20 μl of appropriately diluted stock solution of each drug were added to the middle 8 columns of cell suspension in the microtiter plates. Each drug concentration was run in quadruplicate. Outer columns of the plates were used for buffer controls. Cells were incubated with the drug for 6 days at 37° C. in 5% CO2/H2O atmosphere. 25 μl of 5 mg/ml solution of 3-(4,5-dimethylthiazol-2-yl)-2,5-diphenyl tetrazolium bromide (MTT) were added to each well and incubated for 4 hours at 37° C. in 5% CO2/H2O incubator. Cells were lysed by incubating overnight with 100 μl lysis buffer (500 ml of the lysis buffer contains: 100 g lauryl sulfate (SDS), 250 ml of N,N-dimethylformamide, and 2 ml of glacial acetic acid, made up to volume with water; pH 4.8).
The color was monitored at room temperature at 570 nm in a E-max Precision Microplate Reader (Molecular Devices Corporation, Sunnyvale, Calif.) and data was analyzed using cell survival software supplied by Molecular Devices Corporation.

[1] = Solubility in water for injection; type: physicochemical; conditions: dosing solution, 6.25 mg/kg in 0.1 mL/10 g body weight
Protocol: Response of implanted sc DU-145 prostate tumors to treatment with SL-11159 and SL-11226. This experiment evaluates the antitumor efficacy of SLIL Biomedical Corporation compounds (SL-11159, SL-11226) against subcutaneously-implanted DU-145 human prostate tumor xenografts in male NCr-nu (line 3A10F17T1) mice. All compounds were tested at a single dose level when administered intravenously (iv), at 6.25 mg/kg. Both SL-11159 and SL-11226 were prepared in water for injection (soluble); the injection volume was 0.1 mL/10 g body weight.

[2] = PC-3, Day 4 of Treatment, analog conc. 1 μM
[3] = PC-3, Day 4 of Treatment, analog conc. 5 μM
[4] = PC-3, Day 6 of Treatment, analog conc. 1 μM

CCNCCCCNCCCCNCCCCNCCCCNCCCCNCCCCNCCCCNCCCCNCCCCNCC.Cl.Cl.Cl.Cl.Cl.Cl.Cl.Cl.Cl.Cl [SL-11159]
Polyamine levels, Analog (cellular oligoamine level) (PC-3 Cells; [2]): 0.513 nmoles/10^6 cells | Polyamine levels, Put (PC-3 Cells; [2]): 0.525 nmoles/10^6 cells | Polyamine levels, Spd (PC-3 Cells; [2]): 0.531 nmoles/10^6 cells | Polyamine levels, Spm (PC-3 Cells; [2]): 0.300 nmoles/10^6 cells | Polyamine levels, Analog (cellular oligoamine level) (PC-3 Cells; [3]): 0.388 nmoles/10^6 cells | Polyamine levels, Put (PC-3 Cells; [3]): 0.670 nmoles/10^6 cells | Polyamine levels, Spm (PC-3 Cells; [3]): 0.240 nmoles/10^6 cells | Polyamine levels, Analog (cellular oligoamine level) (PC-3 Cells; [4]): 1.026 nmoles/10^6 cells | Polyamine levels, Put (PC-3 Cells; [4]): 0.640 nmoles/10^6 cells | IC50 (DuPro): 0.3 µM | solubility in water for injection [1]: soluble

CCNCCCCNCCCCNCCCCNCCCCNCCCCNCCCCNCCCCNCCCCNCCCCNCCCCNCCCCNCC.Cl.Cl.Cl.Cl.Cl.Cl.Cl.Cl.Cl.Cl.Cl.Cl [SL-11226]
Polyamine levels, Analog (cellular oligoamine level) (PC-3 Cells; [2]): 0.021 nmoles/10^6 cells | Polyamine levels, Put (PC-3 Cells; [2]): 0.573 nmoles/10^6 cells | Polyamine levels, Analog (cellular oligoamine level) (PC-3 Cells; [3]): 0.026 nmoles/10^6 cells | Polyamine levels, Put (PC-3 Cells; [3]): 0.985 nmoles/10^6 cells | Polyamine levels, Spd (PC-3 Cells; [3]): 0.071 nmoles/10^6 cells | IC50 (DuPro): 0.11 µM | solubility in water for injection [1]: soluble
